ChEMBL document CHEMBL4052645, “Discovery of potent and efficacious pyrrolopyridazines as dual JAK1/3 inhibitors” (Bioorg Med Chem Lett, 2017)

Tests used:
[1] = Clearance in BALB/c mouse at 2 mg/kg, iv; format: ADME, organism-based; conditions: in vivo
[2] = target: Tyrosine-protein kinase Fgr (Homo sapiens) (UniProt P09769); assay: Inhibition of wild-type human partial length FGR (L233 to T529 residues) expressed in bacterial expression system assessed as residual activity at 50 nM by Kinomescan method relative to control
Tyrosine-protein kinase Fgr (Homo sapiens), sequence (P09769 2-529 limits assumed): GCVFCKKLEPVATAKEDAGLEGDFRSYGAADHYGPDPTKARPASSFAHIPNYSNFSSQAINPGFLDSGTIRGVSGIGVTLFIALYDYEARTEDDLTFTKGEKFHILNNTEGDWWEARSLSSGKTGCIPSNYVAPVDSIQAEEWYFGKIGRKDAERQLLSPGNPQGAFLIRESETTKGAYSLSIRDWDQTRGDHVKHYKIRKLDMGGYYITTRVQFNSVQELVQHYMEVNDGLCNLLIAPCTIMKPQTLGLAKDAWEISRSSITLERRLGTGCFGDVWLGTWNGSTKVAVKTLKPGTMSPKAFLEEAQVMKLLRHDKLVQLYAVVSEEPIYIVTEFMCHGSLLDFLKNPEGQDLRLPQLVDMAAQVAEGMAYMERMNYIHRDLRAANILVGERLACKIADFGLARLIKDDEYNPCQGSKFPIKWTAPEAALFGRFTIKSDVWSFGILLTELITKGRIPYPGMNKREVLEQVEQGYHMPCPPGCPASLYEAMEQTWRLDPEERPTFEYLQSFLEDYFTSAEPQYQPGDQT

[3] = AUC in Sprague-Dawley rat at 2 mg/kg, iv; format: ADME, organism-based; conditions: in vivo
[4] = Half life in human liver microsomes; format: ADME, microsome

COc1ccc(-c2cc3c(N[C@@H]4CC[C@](C)(N)C4(C)C)c(C(N)=O)cnn3c2)cn1
clearance [1]: 16.7 mL/min/kg
Activity [2]: 99%
AUC [3]: 5.8 µM·h
half-life [4]: > 90 min
